# Like-named read-outs stand apart in the source and are kept apart here.
# Assays:
# CD11b = experiment: Human whole blood CD11b up-regulation assay; type: cell-based; details: 2 nM human C5a, CD15+ granulocytes, read-out: hCD11b IC50
# How it was run: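 Heparinized human whole blood (used within 2 h) preincubated 10 min at room temperature with compound in 1% DMSO, then stimulated with 2 nM human C5a for 15 min. After anti-CD15/anti-CD11b staining on ice and RBC lysis, CD11b median fluorescence on 10,000 CD15+ granulocytes measured by flow cytometry.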
# human C5aR = human C5aR (Homo sapiens (Human), UniProt P21730); experiment: FLIPR assay: inhibition of C5a-mediated calcium mobilization; type: cell-based; details: stable cell line over expressing human C5aR & Gα15, human C5a at EC50 (0.1-0.25 nM)
# human C5aR, sequence (P21730 whole entry): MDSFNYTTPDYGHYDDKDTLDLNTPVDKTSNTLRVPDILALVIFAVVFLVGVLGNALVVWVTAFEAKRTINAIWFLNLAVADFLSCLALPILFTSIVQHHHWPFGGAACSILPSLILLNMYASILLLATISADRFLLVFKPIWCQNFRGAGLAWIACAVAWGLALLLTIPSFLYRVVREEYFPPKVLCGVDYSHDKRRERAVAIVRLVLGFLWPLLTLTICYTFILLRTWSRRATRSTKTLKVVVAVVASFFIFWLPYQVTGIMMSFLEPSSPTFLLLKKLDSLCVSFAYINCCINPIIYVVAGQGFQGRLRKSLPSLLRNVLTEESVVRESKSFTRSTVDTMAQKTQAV
# How it was run: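 Stable cell line overexpressing human C5aR with Gα15, measured on FLIPR Tetra. Cells loaded 1 h at 37° C with calcium 5 dye and 2.5 mM probenecid in HBSS/20 mM HEPES/0.1% BSA. Compounds preincubated 30 minutes at room temperature in 1% DMSO before C5a.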
IC50 (CD11b; Homo sapiens) [nM],IC50 (human C5aR) [nM],Structure (SMILES),IC50 (CD11b) [nM]
22,4,"COc1ccc(C)c(N2CCc3nc(-c4c(C(C)C)ccc5[nH]ncc45)nc(N4CC[C@H](OC)C(C)(C)C4)c3C2)c1 [Example 19-AE, (S)-2-(5-isopropyl-1H-indazol-4-yl)-6-(5-methoxy-2-methylphenyl)-4-(4-methoxy-3,3-dimethylpiperidin-1-yl)-5,6,7,8-tetrahydropyrido[4,3-d]pyrimidine]",
26,2,"Cc1ccc(C(C)C)cc1N1CCc2nc(-c3c(C)ccc4[nH]nc(C)c34)nc(N3CCOC[C@H]3C)c2C1 [Example 65-K, (R)-4-(2-(3,5-dimethyl-1H-indazol-4-yl)-6-(5-isopropyl-2-methylphenyl)-5,6,7,8-tetrahydropyrido[4,3-d]pyrimidin-4-yl)-3-methylmorpholine]",
15,6,"CO[C@@H]1CCN(c2nc(-c3c(C)ccc4[nH]nc(C)c34)nc3c2CN(c2cc(C(F)(F)F)ccc2C)CC3)CC1(C)C [Example 21-AJ, (R)-2-(3,5-dimethyl-1H-indazol-4-yl)-4-(4-methoxy-3,3-dimethylpiperidin-1-yl)-6-(2-methyl-5-(trifluoromethyl)phenyl)-5,6,7,8-tetrahydropyrido[4,3-d]pyrimidine]",
513,10,"Cc1ccc(C(C)C)cc1N1CCc2nc(-c3cccc4[nH]cc(C)c34)nc(N3CC(O)C3)c2C1 [Example 17-AP, 1-(6-(5-isopropyl-2-methylphenyl)-2-(3-methyl-1H-indol-4-yl)-5,6,7,8-tetrahydropyrido[4,3-d]pyrimidin-4-yl)azetidin-3-ol]",
30,31,"CO[C@@H]1CCN(c2nc(-c3c(C)cccc3C#N)nc3c2CN(c2cc(C(C)C)ccc2C)CC3)C[C@H]1C [Example 19-AK, 2-(6-(5-isopropyl-2-methylphenyl)-4-((3R,4R)-4-methoxy-3-methylpiperidin-1-yl)-5,6,7,8-tetrahyropyrido[4,3-d]pyrimidin-2-yl)-3-methylbenzonitrile]",
63,6,"COc1nc(-c2c(C)ccc3[nH]nc(Cl)c23)nc2c1CN(c1cc(C(C)C)ccc1C)CC2 [Example 32-A, 2-(3-Chloro-5-methyl-1H-indazol-4-yl)-6-(5-isopropyl-2-methylphenyl)-4-methoxy-5,6,7,8 tetrahydropyrido[4,3-d]pyrimidine]",
422,23,"CO[C@@H]1CCN(c2nc(-c3cc(C)ccc3C)nc3c2CN(c2cc(C(C)C)ccc2C)CC3)[C@H](C)C1 [Example 21-E, 2-(2,5-dimeethylphenyl)-6-(5-isopropyl-2-methylphenyl)-4-((2R,4R)-4-methoxy-2-methylpiperidin-1-yl)-5,6,7,8-tetrahydropyrido[4,3-d]pyrimidine]",
19,1,"Cc1ccc(C(C)C)cc1N1CCc2nc(-c3c(C)ccc4[nH]nc(C)c34)nc(N3CCC3C)c2C1 (single isomer, unassigned) [Example 65-I, 2-(3,5-dimethyl-1H-indazol-4-yl)-6-(5-isopropyl-2-methylphenyl)-4-(2-methylazetidin-1-yl)-5,6,7,8-tetrahydropyrido[4,3-d]pyrimidine]",
8,2,"COc1ccc(C)c(N2CCc3nc(-c4c(C)cccc4C)nc(N4CC[C@@H](OC)C[C@H]4C)c3C2)c1 [Example 21-N, 2-(2,6-dimethylphenyl)-6-(5-methoxy-2-methylphenyl)-4-((2R,4R)-4-methoxy-2-methylpiperidin-1-yl)-5,6,7,8-tetrahydropyrido[4,3-d]pyrimidine]",
5780,16,"Cc1ccc(C(C)C)cc1N1CCc2nc(-c3cccc4[nH]cc(C)c34)nc(N3CCN(C4COC4)[C@H](C)C3)c2C1 [Example 30-A, (R)-6-(5-Isopropyl-2-methylphenyl)-2-(3-methyl-1H-indol-4-yl)-4-(3-methyl-4-(oxetan-3-yl)piperazin-1-yl)-5,6,7,8-tetrahydropyrido[4,3-d]pyrimidine]",
28,4,"CO[C@H]1CCN(c2nc(-c3ccc(F)c4[nH]cc(C)c34)nc3c2CN(c2cc(C(C)C)ccc2C)CC3)CC1(C)C [Example 21-AF, (S)-2-(7-fluoro-3-methyl-1H-indol-4-yl)-6-(5-isopropyl-2-methylphenyl)-4-(4-methoxy-3,3-dimethylpiperidin-1-yl)-5,6,7,8-tetrahydropyrido[4,3-d]pyrimidine]",
178,1,"Cc1ccc(C(C)C)cc1N1CCc2nc(-c3cccc4[nH]cc(C)c34)nc(N3CCN(CC(N)=O)C[C@H]3C)c2C1 [Example 52-C, (R)-2-(4-(6-(5-Isopropyl-2-methylphenyl)-2-(3-methyl-1H-indol-4-yl)-5,6,7,8-tetrahydropyrido[4,3-d]pyrimidin-4-yl)-3-methylpiperazin-1-yl)acetamide]",
95,40,"CO[C@@H]1CCN(c2nc(-c3c(C)cccc3C)nc3c2CN(c2cc(C(C)C)nn2C)CC3)[C@H](C)C1 [Example 23-C, 2-(2,6-dimethylphenyl)-6-(3-isopropyl-1-methyl-1H-pyrazol-5-yl)-4-((2R,4R)-4-methoxy-2-methylpiperidin-1-yl)-5,6,7,8-tetrahydropyrido[4,3-d]pyrimidine]",
302,22,"CCc1cccc(CC)c1-c1cc(C)c2c(n1)CCN(c1cc(C(C)C)ccc1C)C2 [Example 41-J, 2-(2,6-diethylphenyl)-6-(5-isopropyl-2-methylphenyl)-4-methyl-5,6,7,8-tetrahydro-1,6-naphthyridine]",

# The remaining lines, values behind:
Structure (SMILES),IC50 (CD11b; Homo sapiens) [nM],IC50 (human C5aR) [nM],IC50 (CD11b) [nM]
"Cc1ccc(F)cc1N1CCc2nc(-c3cccc4[nH]cc(C)c34)nc(N3CCN(CC(N)=O)[C@H](C)C3)c2C1 [Example 24-E, (R)-2-(4-(6-(5-fluoro-2-methylphenyl)-2-(3-methyl-1H-indol-4-yl)-5,6,7,8-tetrahydropyrido[4,3-d]pyrimidin-4-yl)-2-methylpiperazin-1-yl)acetamide]",385,75,
"CO[C@H]1C[C@H]2CC[C@@H](C1)N2c1nc(-c2cccc3[nH]cc(C)c23)nc2c1CN(c1cc(C(C)C)ccc1C)CC2 [Example 17-AS, 6-(5-isopropyl-2-methylphenyl)-4-((3-endo)-3-methoxy-8-azabicyclo[3.2.1]octan-8-yl)-2-(3-methyl-1H-indol-4-yl)-5,6,7,8-tetrahydropyrido[4,3-d]pyrimidine]",67,46,
"Cc1ccc(C(C)C)cc1N1CCc2nc(-c3cccc4[nH]cc(C)c34)cc(C)c2C1 [Example 40-D, 6-(5-Isopropyl-2-methylphenyl)-4-methyl-2-(3-methyl-1H-indol-4-yl)-5,6,7,8-tetrahydro-1,6-naphthyridine]",,132,264
"Cc1ccccc1N1CCc2nc(-c3c(C)cccc3C)nc(N(C)C)c2C1 [Example 17-T, 2-(2,6-dimethylphenyl)-N,N-dimethyl-6-(o-tolyl)-5,6,7,8-tetrahydropyrido[4,3-d]pyrimidin-4-amine]",451,54,
"CO[C@H]1CCN(c2nc(-c3c(C(C)C)ccc4[nH]ncc34)nc3c2CN(c2cc(C(C)C)nn2C)CC3)CC1(C)C [Example 23-F, (S)-6-(3-isopropyl-1-methyl-1H-pyrazol-5-yl)-2-(5-isopropyl-1H-indazol-4-yl)-4-(4-methoxy-3,3-dimethylpiperidin-1-yl)-5,6,7,8-tetrahydropyrido[4,3-d]pyrimidine]",28,5,
"Cc1ccc2[nH]nc(C)c2c1-c1nc2c(c(N3C[C@@H](O)[C@@H]3C)n1)CN(c1c(Cl)c(C3CC3)nn1C)CC2 (racemic) [Example 69-H, (trans)-1-(6-(4-chloro-3-cyclopropyl-1-methyl-1H-pyrazol-5-yl)-2-(3,5-dimethyl-1H-indazol-4-yl)-5,6,7,8-tetrahydropyrido[4,3-d]pyrimidin-4-yl)-2-methylazetidin-3-ol]",196,4,
"Cc1ccccc1N1CCc2nc(-c3c(C)cccc3C)nc(N(C)CC(C)(C)O)c2C1 [Example 17-H, 1-((2-(2,6-Dimethylphenyl)-6-(o-tolyl)-5,6,7,8-tetrahydropyrido[4,3-d]pyrimidin-4-yl)(methyl)amino)-2-methylpropan-2-ol]",300,10,
"Cc1cc(-c2c(C(C)C)ccc3[nH]ncc23)nc2c1CN(c1c(Cl)c(C3CC3)nn1C)CC2 [Example 46-B, 6-(4-Chloro-3-cyclopropyl-1-methyl-1H-pyrazol-5-yl)-2-(5-isopropyl-1H-indazol-4-yl)-4-methyl-5,6,7,8-tetrahydro-1,6-naphthyridine]",224,42,
"COC1CCN(c2nc(-c3c(C)cccc3C)nc3c2CN([C@@H](C)c2ccccc2)CC3)CC1(C)C (mixture of isomers) [Example 33-C, (±)-2-(2,6-Dimethylphenyl)-4-(4-methoxy-3,3-dimethylpiperidin-1-yl)-6-((S)-1-phenylethyl)-5,6,7,8-tetrahydropyrido[4,3-d]pyrimidine]",238,79,
"CO[C@H]1CCN(c2nc(-c3c(C)ccc4[nH]nc(C)c34)nc3c2CN(c2cc(C(F)(F)F)nn2C)CC3)CC1(C)C [Example 23-K, (S)-2-(3,5-dimethyl-1H-indazol-4-yl)-4-(4-methoxy-3,3-dimethylpiperidin-1-yl)-6-(1-methyl-3-(trifluoromethyl)-1H-pyrazol-5-yl)-5,6,7,8-tetrahydropyrido[4,3-d]pyrimidine]",11,64,
